The target of experiment [1] is T1, HSP47 (Canis lupus familiaris, UniProt C7C419). Particulars: normalized to water at 20 °C.
Procedure: All samples were incubated for 30 min at RT and afterward centrifuged at 42.000 rpm in a ProteomeLab XL-A analytical ultracentrifuge (Beckman Coulter) equipped with a fluorescence detection system (AU-FDS; Aviv Biomedical Inc). In this setup 42.000 rpm translates to 117.552g at the top (r = 59.5 mm) and 142.248g at the bottom (r = 72.0 mm) of the sample cell. Samples were spun in standard 12 mm double-sector epon-filled centerpieces, covered with quartz windows. All measurements were performed in triplicates and key findings repeated three times.
The resulting sedimentation velocity profiles were analyzed using DCDT+ version 2.4.3 software by John Philo ([40]). The buffer density (ρ) and buffer viscosity (η) of the buffer used for data analysis were calculated with [sequence]
In experiment [2] the target is T1, HSP47. Particulars: CMP coated 500 ng/well, HSP47 1:4 dilution series from 8 or 10 μM, anti-His-HRP/TMB read-out, four-parameter logistic fit, triplicates.
Procedure: Purified collagen model peptides were coated onto a Nunc MaxiSorp (Thermo Fisher Scientific), 500 ng/well. Plates were washed after 1 h at RT with TBS-T 0.05% and free binding sites were blocked with 1% (w/v) BSA in TBS. […] Assays were either stopped with 10% H2SO4 and absorption measured at 450 nm or continuously monitored at 370 nm every 20 min for 1 h. In latter cases, timepoints showing the highest signal-to-noise ratio were used for analysis. […] Results were analyzed using Gen5 (BioTek) and Origin 2018.
The values shown for ELISA-style binding assays represent the average of triplicates. Data from affinity assays were analyzed using a four-parameter logistic fit function ([44]) in Origin 2018.
Experiment [3] deals with T1, HSP47. Particulars: gold-labeled HSP47 200 nM, foldon-CMP 100 nM (2:1); 30 fields of 1 μm2 counted.
Procedure: Briefly, mixed protein solutions were adsorbed to 400 mesh carbon-coated copper grids and stained with 0.75% (w/v) uranyl formate. Specimens were examined in a Philips/FEICM 100 TWIN transmission electron microscope operated at 60 kV accelerating voltage. Images were recorded with a side-mounted Olympus Veleta camera with a resolution of 2048 × 2048 pixels (2k × 2K) and the ITEM acquisitions software.
[4] abbreviates: higher molar ratios of HSP47 (up to 20 μM) to 1 μM ATTO488-labeled CMP.
Where [5] appears, read: read-out: KD determined by curve fittings, Fig. 1D.
Where [6] appears, read: 1–5 μM HSP47 to 1 μM ATTO488-labeled CMP, 20 mM HEPES, 150 mM NaCl pH 7.5.

“And” between values parts separate entries of the source, which are not always exact repeats. Identical values can stand only once. Like-named read-outs stand apart in the source and are kept apart here.

T1 sequence (C7C419 entry or part of it): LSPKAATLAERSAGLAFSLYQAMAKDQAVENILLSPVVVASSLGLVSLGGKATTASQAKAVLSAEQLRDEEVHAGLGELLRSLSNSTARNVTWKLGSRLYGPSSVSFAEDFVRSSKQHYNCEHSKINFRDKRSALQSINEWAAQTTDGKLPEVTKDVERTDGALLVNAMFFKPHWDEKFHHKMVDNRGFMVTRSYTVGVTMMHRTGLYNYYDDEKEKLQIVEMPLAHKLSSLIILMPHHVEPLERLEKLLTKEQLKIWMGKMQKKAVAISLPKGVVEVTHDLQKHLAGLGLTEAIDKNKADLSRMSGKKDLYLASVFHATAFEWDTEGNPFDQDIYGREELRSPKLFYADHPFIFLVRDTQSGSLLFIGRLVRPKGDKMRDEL

The term Kd denotes the free concentration of one partner at which half of the binding sites on the other are occupied at equilibrium, for simple one-to-one binding. Regarding GARGLP, the “sedimentation coefficient of the HSP47:CMP complex” value (from here on “sedimentation coefficient”) at HSP47 [1] (setting [4]) is given as “even higher sedimentation rates”. Further, at HSP47 [2] (setting [5]), the Kd came to 24.1 ± 5.4 nM. Moreover, on HSP47 [3], the “Stoichiometry, 0 Au / foldon (no HSP47 bound)” value was determined as 52% and the “Stoichiometry, 1 Au / foldon (one HSP47 bound)” value came to 46%.

With GPRGFP, the “sedimentation coefficient” value on HSP47 [1] (setting [6]) is on record as about 4 S; on HSP47 [1] (setting [4]) it was “stagnated”. Besides, the Kd at HSP47 [2] (setting [5]) was found to be 12 ± 1.4 nM. Further, the “Stoichiometry, 0 Au / foldon (no HSP47 bound)” value on HSP47 [3] is 54%. Also, the “Stoichiometry, 1 Au / foldon (one HSP47 bound)” value at HSP47 [3] came to 45%.

Consider GPRGPP, for which the entries for the “sedimentation coefficient” value on HSP47 [1] (setting [6]) and on HSP47 [1] (setting [4]) were about 4 S and about 5 S, respectively. Moreover, the Kd at HSP47 [2] (Fig. 1C) is 36 ± 3 nM; on HSP47 [2] (setting [5]), 21.7 nM and ~21 nM. At HSP47 [3], the “Stoichiometry, 1 Au / foldon (one HSP47 bound)” value was found to be 29%. Moreover, the “Stoichiometry, 2 Au / foldon (two HSP47 bound)” value on HSP47 [3] was found to be 18%.
